According to patent US20160311788A1, “Antifouling Compounds And Use Thereof” (National University of Singapore, priority 2008, published 2016):

Tests used:
[1] = system: marine bacteria strain S14; assay: disc inhibition assay, strain S14; type: cell-based, Vibrio probioticus
[2] = system: Pseudomonas aeruginosa (strain LMG 12228; ATCC 15692); assay: disc inhibition assay, REF 3; type: cell-based
Method: (§1) 13 strains of marine bacteria were isolated from fouling communities located in the coastal waters around Singapore. These were characterized in earlier studies and reported in Teo et al. (U.S. patent application Ser. No. 11/265,833) and Choong et al (in prep). In addition, four reference bacterial strains were added tested: Escherichia coli (Strain K12, ATCC 15222), E. coli (strain DH5a), Pseudomonas aeruginosa (strain LMG 12228; ATCC 15692) and P. putida (strain KT2440; ATCC 47054). All the bacteria were also tested against five antibiotics: ampicillin (AMP), tetracycline (TETR), erythromycin (ERY), chloramphenicol (CHL) and streptomycin (STREP).
(§2) Disks comprising the compounds to be tested were prepared as follows. The antibacterial assay, the pure compounds were made up to a concentration of 2 mgml^−1 in DMSO. 25 μl of the stock was pipetted onto each 6 mm sterile disc (Macherey-Nagel #484000) to obtain 50 μg of compound per disc. Equivalent volume of DMSO was used inoculated for the control.
(§3) For all disk inhibition assays, bacterial cultures were grown in marine broth (Pronadisa #1217.00). Sterile swabs dipped into the cultures were used to inoculate Marine Agar plates with a bacterial lawn by smearing the culture over the surface. After inoculating the plates, discs with antibiotics, pharmaceuticals or control blanks were placed on each plate. Each concentration of antibiotic or pharmaceutical was tested with two replicates. After the disks were placed on the agar surface, plates were incubated overnight in the dark at 35° C. After incubation, plates were examined for zones of inhibition or clearing around control and treated disks. The diameter of any zone of clearing or inhibition was measured using Vernier calipers. There were two replicates per treatment, and the average was taken. There was no zone of inhibition around the control blanks in all the assays.

[3] = system: marine bacteria strain S27; assay: disc inhibition assay, strain S27; type: cell-based, Tenacibaculum lutimaris
Summary of the method: (§4)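 Compounds were applied at 50 μg per 6 mm disc (from 2 mg/ml DMSO stock; DMSO control) onto lawns of Singapore coastal fouling bacteria on marine agar. After overnight incubation in the dark at 35 °C, inhibition-zone diameters were caliper-measured; mean of two replicates.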

[4] = system: Escherichia coli (Strain K12; ATCC 15222); assay: disc inhibition assay, REF 1; type: cell-based
Method: as §1, §2, §3

[5] = system: marine bacteria strain S9; assay: disc inhibition assay, strain S9; type: cell-based, Bacillus algicola; settings: Guptibacillus algicola, S9, 24 h
Summary of the method: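 Read-out is the diameter of the zone of clearing around each disc, measured with Vernier calipers and averaged over duplicates. Each disc carried 50 μg of compound applied from a 2 mg/ml DMSO stock onto a Marine Agar bacterial lawn, incubated overnight at 35° C in darkness.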

[6] = system: marine bacteria strain S18; assay: disc inhibition assay, strain S18; type: cell-based, Microbacterium esteraromaticum; settings: Microbacterium esteraromaticum, S18, 24 h
[7] = system: marine bacteria strain S1; assay: disc inhibition assay, strain S1; type: cell-based, Rhodovulum iodosum
Summary of the method: as §4

[8] = system: marine bacteria strain S16; assay: disc inhibition assay, strain S16; type: cell-based, Pseudoalteromonas piscicida; settings: Pseudoalteromonas piscicida, S16, 24 h
Summary of the method: as §4

[9] = system: marine bacteria strain S4; assay: disc inhibition assay, strain S4; type: cell-based, Bacillus algicola; settings: Guptibacillus algicola, S4, 24 h
Summary of the method: as §4

[10] = system: marine bacteria strain S30; assay: disc inhibition assay, strain S30; type: cell-based, Bacillus borophilicus; settings: Bacillus, S30, 24 h
Summary of the method: as §4

[11] = system: marine bacteria strain S3; assay: disc inhibition assay, strain S3; type: cell-based, Erythrobacter aquimaris
Summary of the method: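 Antibacterial susceptibility was measured by agar disc diffusion. Compounds dissolved in DMSO were applied to 6 mm sterile discs and laid on Marine Agar lawns of a Singapore coastal marine bacterium cultured in marine broth. After overnight dark incubation at 35° C, clearing zone diameters were measured with Vernier calipers, and the two replicates were averaged.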

[12] = system: marine bacteria strain S10; assay: disc inhibition assay, strain S10; type: cell-based, Halobacillus trueperi; settings: Halobacillus trueperi, S10, 24 h
Summary of the method: as §4

[13] = system: marine bacteria strain S29; assay: disc inhibition assay, strain S29; type: cell-based, Bacillus hwajinpoensis; settings: Guptibacillus hwajinpoensis, S29, 24 h
Summary of the method: as §4

[14] = system: Escherichia coli (Strain DH5a); assay: disc inhibition assay, REF 2; type: cell-based
Method: as §1, §2, §3

[15] = system: marine bacteria strain S28; assay: disc inhibition assay, strain S28; type: cell-based, Arthrobacter protophormial; settings: Arthrobacter, S28, 24 h
Summary of the method: as §4

[16] = system: Pseudomonas putida (Strain KT2440; BCRC 10459); assay: disc inhibition assay, REF 4; type: cell-based
Method: as §1, §2, §3

[17] = system: marine bacteria strain S17; assay: disc inhibition assay, strain S17; type: cell-based, Gordonia terrae; settings: Gordonia terrae, S17, 24 h
Summary of the method: as §4

CC[C@H]1OC(=O)[C@H](C)[C@@H](O[C@H]2C[C@@](C)(OC)[C@@H](O)[C@H](C)O2)[C@H](C)[C@@H](O[C@@H]2O[C@H](C)C[C@H](N(C)C)[C@H]2O)[C@](C)(O)C[C@@H](C)C(=O)[C@H](C)[C@@H](O)[C@]1(C)O [ERY, Erythromycin, reference compound] was tested, and the zone of inhibition at 15 µg/disc ([1]; Vibrio, S14, 24 h) was 2 to 5 mm, the zone of inhibition ([1]; strain 14, 5 ug) was “−” and the zone of inhibition ([2]; REF 3, 5 ug) was “+ (2-5 mm zone of inhibition around each disk was observed.)”. The zone of inhibition ([2]; REF 3, 15 ug) was “+ (2-5 mm zone of inhibition around each disk was observed.)”, the zone of inhibition at 5 µg/disc ([3]; Tenacibaculum lutimaris, S27, 24 h, strain 27, 5 ug) was 5 to 10 mm and the zone of inhibition at 15 µg/disc ([3]; Tenacibaculum lutimaris, S27, 24 h, strain 27, 15 ug) was 5 to 10 mm. For the same compound, the zone of inhibition ([4]; REF 1, 5 ug) was “−”, the zone of inhibition ([4]; REF 1, 15 ug) was “+ (2-5 mm zone of inhibition around each disk was observed.)” and the zone of inhibition at 5 µg/disc ([5]; strain 9, 5 ug) was over 10 mm. The zone of inhibition at 15 µg/disc ([5]; strain 9, 15 ug) was over 10 mm, the zone of inhibition at 5 µg/disc ([6]; strain 18, 5 ug) was 2 to 5 mm and the zone of inhibition at 15 µg/disc ([6]; strain 18, 15 ug) was 5 to 10 mm. For the same compound, the zone of inhibition ([7]; strain 1, 5 ug) was “−”, the zone of inhibition ([7]; strain 1, 15 ug) was “−” and the zone of inhibition at 5 µg/disc ([8]; strain 16, 5 ug) was 2 to 5 mm. For the same compound, the zone of inhibition at 15 µg/disc ([8]; strain 16, 15 ug) was 2 to 5 mm, the zone of inhibition at 5 µg/disc ([9]; strain 4, 5 ug) was over 10 mm and the zone of inhibition at 15 µg/disc ([9]; strain 4, 15 ug) was over 10 mm. The zone of inhibition at 5 µg/disc ([10]; strain 30, 5 ug) was 5 to 10 mm, the zone of inhibition at 15 µg/disc ([10]; strain 30, 15 ug) was 5 to 10 mm and the zone of inhibition at 5 µg/disc ([11]; Qipengyuania aquimaris, S3, 24 h, strain 3, 5 ug) was 5 to 10 mm. It also gave a zone of inhibition at 15 µg/disc ([11]; Qipengyuania aquimaris, S3, 24 h, strain 3, 15 ug) of 5 to 10 mm, a zone of inhibition at 5 µg/disc ([12]; strain 10, 5 ug) of 5 to 10 mm and a zone of inhibition at 15 µg/disc ([12]; strain 10, 15 ug) of over 10 mm. The zone of inhibition at 5 µg/disc ([13]; strain 29, 5 ug) was over 10 mm, the zone of inhibition at 15 µg/disc ([13]; strain 29, 15 ug) was over 10 mm and the zone of inhibition ([14]; REF 2, 5 ug) was “−”. The zone of inhibition ([14]; REF 2, 15 ug) was “+ (2-5 mm zone of inhibition around each disk was observed.)”, the zone of inhibition at 5 µg/disc ([15]; strain 28, 5 ug) was over 10 mm and the zone of inhibition at 15 µg/disc ([15]; strain 28, 15 ug) was over 10 mm. For the same compound, the zone of inhibition ([16]; REF 4, 5 ug) was “+ (2-5 mm zone of inhibition around each disk was observed.)”, the zone of inhibition ([16]; REF 4, 15 ug) was “+ (2-5 mm zone of inhibition around each disk was observed.)” and the zone of inhibition at 5 µg/disc ([17]; strain 17, 5 ug) was over 10 mm. It also gave a zone of inhibition at 15 µg/disc ([17]; strain 17, 15 ug) of over 10 mm.
[H]/N=C(/N)N[C@H]1[C@H](O)[C@@H](O)[C@H](O[C@@H]2O[C@@H](C)[C@](O)(C=O)[C@H]2O[C@@H]2O[C@@H](CO)[C@H](O)[C@@H](O)[C@@H]2NC)[C@@H](N/C(N)=N\[H])[C@@H]1O [STREP, Streptomycin, reference compound] was tested, and the zone of inhibition at 10 µg/disc ([1]; Vibrio, S14, 24 h) was 2 to 5 mm, the zone of inhibition at 25 µg/disc ([1]; Vibrio, S14, 24 h) was 2 to 5 mm and the zone of inhibition ([2]; REF 3, 10 ug) was “+ (2-5 mm zone of inhibition around each disk was observed.)”. For the same compound, the zone of inhibition ([2]; REF 3, 25 ug) was “++ (5-10 mm zone was observed.)”, the zone of inhibition ([3]; strain 27, 10 ug) was “−” and the zone of inhibition ([3]; strain 27, 25 ug) was “−”. The zone of inhibition ([4]; REF 1, 10 ug) was “+ (2-5 mm zone of inhibition around each disk was observed.)”, the zone of inhibition ([4]; REF 1, 25 ug) was “++ (5-10 mm zone was observed.)” and the zone of inhibition at 10 µg/disc ([5]; strain 9, 10 ug) was 2 to 5 mm. The zone of inhibition at 25 µg/disc ([5]; strain 9, 25 ug) was 2 to 5 mm, the zone of inhibition at 10 µg/disc ([6]; strain 18, 10 ug) was 2 to 5 mm and the zone of inhibition at 25 µg/disc ([6]; strain 18, 25 ug) was 5 to 10 mm. For the same compound, the zone of inhibition at 10 µg/disc ([7]; Rhodovulum iodosum, S1, strain 1, 10 ug) was 5 to 10 mm, the zone of inhibition at 25 µg/disc ([7]; Rhodovulum iodosum, S1, strain 1, 25 ug) was over 10 mm and the zone of inhibition at 10 µg/disc ([8]; strain 16, 10 ug) was 2 to 5 mm. It also gave a zone of inhibition at 25 µg/disc ([8]; strain 16, 25 ug) of 5 to 10 mm, a zone of inhibition at 10 µg/disc ([9]; strain 4, 10 ug) of 2 to 5 mm and a zone of inhibition at 25 µg/disc ([9]; strain 4, 25 ug) of 5 to 10 mm. For the same compound, the zone of inhibition at 10 µg/disc ([10]; strain 30, 10 ug) was 2 to 5 mm, the zone of inhibition at 25 µg/disc ([10]; strain 30, 25 ug) was 5 to 10 mm and the zone of inhibition ([11]; strain 3, 10 ug) was “−”. The zone of inhibition ([11]; strain 3, 25 ug) was “−”, the zone of inhibition at 10 µg/disc ([12]; strain 10, 10 ug) was 2 to 5 mm and the zone of inhibition at 25 µg/disc ([12]; strain 10, 25 ug) was 2 to 5 mm. For the same compound, the zone of inhibition at 10 µg/disc ([13]; strain 29, 10 ug) was 2 to 5 mm, the zone of inhibition at 25 µg/disc ([13]; strain 29, 25 ug) was 5 to 10 mm and the zone of inhibition ([14]; REF 2, 10 ug) was “−”. For the same compound, the zone of inhibition ([14]; REF 2, 25 ug) was “−”, the zone of inhibition at 10 µg/disc ([15]; strain 28, 10 ug) was 2 to 5 mm and the zone of inhibition at 25 µg/disc ([15]; strain 28, 25 ug) was 5 to 10 mm. For the same compound, the zone of inhibition ([16]; REF 4, 10 ug) was “+ (2-5 mm zone of inhibition around each disk was observed.)”, the zone of inhibition ([16]; REF 4, 25 ug) was “++ (5-10 mm zone was observed.)” and the zone of inhibition at 10 µg/disc ([17]; strain 17, 10 ug) was 2 to 5 mm. For the same compound, the zone of inhibition at 25 µg/disc ([17]; strain 17, 25 ug) was 5 to 10 mm.
